Measured values as given in patent publication US20060074243A1, “Hydroxamic acid and amide compounds and their use as protease inhibitors” (Pharmacia Corporation, priority 2002, published 2006).

Tests used:
Assay in all cases: In vitro MMP inhibition analysis (fluorogenic peptide substrate cleavage), Ki
Format in all cases: biochemical
Conditions in all cases: Table 2
Human recombinant MMP-1 = target: T1, Human recombinant MMP-1 (Homo sapiens, UniProt P03956)
T1 construct: made in house; host or cells: MMP-1-transfected HT-1080 cells (spent media)
T1 sequence (P03956 100-469): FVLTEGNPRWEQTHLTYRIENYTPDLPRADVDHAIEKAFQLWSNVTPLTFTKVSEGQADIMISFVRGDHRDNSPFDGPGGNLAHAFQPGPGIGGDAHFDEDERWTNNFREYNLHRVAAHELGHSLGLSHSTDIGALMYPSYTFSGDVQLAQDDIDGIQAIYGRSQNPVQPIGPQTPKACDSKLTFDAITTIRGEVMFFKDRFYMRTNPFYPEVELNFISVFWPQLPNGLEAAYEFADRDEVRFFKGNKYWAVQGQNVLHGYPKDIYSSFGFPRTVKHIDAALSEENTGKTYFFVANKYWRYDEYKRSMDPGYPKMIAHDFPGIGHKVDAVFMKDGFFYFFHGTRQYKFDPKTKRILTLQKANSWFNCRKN
How it was run: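 APMA- or trypsin-activated recombinant human MMP-1 (purified from transfected HT-1080 medium) with 4 μM MCA/Dpa quenched fluorogenic peptide, 1 h at room temperature in Tris/NaCl/CaCl2 buffer pH 7.5; fluorescence ex 330/em 420 nm. Ki from Morrison-equation fit of rates, substrate at or below Km, uncorrected.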

Human recombinant MMP-9 = target: T2, Human recombinant MMP-9 (Homo sapiens, UniProt P14780)
T2 construct: made in house; host or cells: MMP-9-transfected HT1080 cells (spent media)
How it was run: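 Recombinant MMP-9 purified from transfected HT1080 cell media, activated with APMA, trypsin or recombinant MMP-3, assayed in Tris buffer pH 7.5 with CaCl2 and 4 μM fluorogenic MCA/Dpa peptide, 1 h at room temperature (ex 330/em 420 nm). Ki from Morrison-equation regression of velocity; substrate at or below Km, uncorrected.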

Human recombinant MMP-14 = target: T3, Human recombinant MMP-14 (Homo sapiens, UniProt P50281)
T3 construct: The catalytic domain enzyme was expressed in E. coli inclusion bodies, solubilized in urea; made in house
How it was run: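 Refolded catalytic domain of MMP-14 expressed in E. coli, activated with APMA or trypsin, incubated 1 h at room temperature with 4 μM MCA-peptide substrate in Tris buffer pH 7.5 with CaCl2. Cleavage rate followed by fluorescence (ex 330/em 420 nm). Ki from Morrison-equation fit; substrate at or below Km, so no substrate correction.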

T2 sequence (P14780 107-707 limits assumed): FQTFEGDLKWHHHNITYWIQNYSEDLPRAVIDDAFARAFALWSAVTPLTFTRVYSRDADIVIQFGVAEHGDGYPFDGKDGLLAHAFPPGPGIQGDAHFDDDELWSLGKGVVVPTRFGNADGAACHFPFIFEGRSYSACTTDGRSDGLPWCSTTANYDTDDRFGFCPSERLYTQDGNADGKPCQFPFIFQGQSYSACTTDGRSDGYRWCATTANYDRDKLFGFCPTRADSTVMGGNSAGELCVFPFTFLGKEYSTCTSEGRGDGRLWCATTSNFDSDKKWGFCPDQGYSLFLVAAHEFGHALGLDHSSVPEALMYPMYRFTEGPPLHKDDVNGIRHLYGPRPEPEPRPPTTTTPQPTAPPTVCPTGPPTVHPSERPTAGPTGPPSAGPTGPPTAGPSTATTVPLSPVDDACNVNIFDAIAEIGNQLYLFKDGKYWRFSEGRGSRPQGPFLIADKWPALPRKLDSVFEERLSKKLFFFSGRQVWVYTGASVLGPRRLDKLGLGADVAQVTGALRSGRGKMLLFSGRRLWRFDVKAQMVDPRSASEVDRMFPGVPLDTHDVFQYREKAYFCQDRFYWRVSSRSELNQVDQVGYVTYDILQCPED

Row | Structure (SMILES) | Ki (Human recombinant MMP-1) [nM] | Ki (Human recombinant MMP-9) [nM] | Ki (Human recombinant MMP-14) [nM]
1 | CCCCOc1ccc(-c2ccc(S(=O)(=O)C3(C(=O)NO)CCOCC3)cc2)cc1C(F)(F)F [Example 78] | > 10000 | 132 | 9570
2 | O=C(NO)C1(S(=O)(=O)c2ccc(-c3ccc(CCC(F)(F)C(F)(F)F)cc3)cc2)CCS(=O)(=O)CC1 [Example 167] | > 10000 | 12.5 | 3590
3 | O=C(c1ccc2cc(-c3ccc(S(=O)(=O)C4(C(=O)NO)CCOCC4)cc3)ccc2c1)N1CCOCC1 [Example 222] | 1440 | 29.5 | > 10000
4 | O=C(N1CCOCC1)N1CCC(C(=O)NO)(S(=O)(=O)c2ccc(-c3ccc(CCC(F)(F)C(F)(F)F)cc3)cc2)CC1 [Example 171] | 6370 | 0.62 | 633
5 | CC[C@@H](C)NC(=O)c1ccc(-c2ccc(S(=O)(=O)C3(C(=O)NO)CCOCC3)cc2)nc1 [Example 207] | 1380 | 78 | > 10000
6 | O=C(NO)C1(S(=O)(=O)c2ccc(-c3cnc(OCCC4CCCC4)cn3)cc2)CCOCC1 [Example 180] | > 10000 | 1.03 | 1140
7 | CC(C)(C)NC(=O)c1ccc(-c2ccc(S(=O)(=O)C3(C(=O)NO)CCOCC3)cc2)nc1 [Example 205] | 1070 | 21.8 | 7630
8 | CN(C)C(=O)c1ccc2cc(-c3ccc(S(=O)(=O)C4(C(=O)NO)CCOCC4)cc3)ccc2c1 [Example 221] | 1860 | 16.7 | 6850
9 | O=C(NCC1CC1)c1cnc(-c2ccc(S(=O)(=O)C3(C(=O)NO)CCOCC3)cc2)cn1 [Example 191] | 200 | 1.43 | 930
10 | O=C(NO)C1(S(=O)(=O)c2ccc(-c3cnc(OCC4CCC4)cn3)cc2)CCOCC1 [Example 178] | 1100 | 0.14 | 326
11 | COCCC(C(=O)NO)S(=O)(=O)c1ccc(-c2ccc(CCC(F)(F)C(F)(F)F)cc2)cc1 (stereo not drawn) [Example 177] | > 10000 | 5.36 | 5860
12 | COCCN1CCC(C(=O)NO)(S(=O)(=O)c2ccc(-c3cnc(CCC(F)(F)F)cn3)cc2)CC1 [Example 214] | > 10000 | 2.05 | 6980
13 | CCCc1ccc(-c2ccc(S(=O)(=O)C3(C(=O)NO)CCOCC3)cc2)cc1 [Example 87] | 1110 | 0.176 | 62.3
14 | CN(C)C(=O)N1CCC(C(=O)NO)(S(=O)(=O)c2ccc(-c3ccc(CCC(F)(F)C(F)(F)F)cc3)cc2)CC1 [Example 173] | 4610 | 0.67 | 441
15 | CC(C)NC(=O)c1ccc(-c2ccc(S(=O)(=O)C3(C(=O)NO)CCOCC3)cc2)nc1 [Example 204] | 751 | 11.8 | 6370
16 | COCCOc1ccc(-c2ccc(S(=O)(=O)C3(C(=O)NO)CCOCC3)cc2)cc1 [Example 70] | 969 | 1.11 | 299
17 | C#CCN(C)C(=O)c1ccc2cc(-c3ccc(S(=O)(=O)C4(C(=O)NO)CCOCC4)cc3)ccc2c1 [Example 216] | 1860 | 13.3 | 2550
18 | O=C(NO)C1(S(=O)(=O)c2ccc(-c3ccccc3CO)cc2)CCOCC1 [Example 197] | > 10000 | > 10000 | > 10000
19 | O=C(NO)C1(S(=O)(=O)c2ccc(-c3cnc(CCCC(F)(F)F)cn3)cc2)CCN(C2CC2)CC1 [Example 218] | > 10000 | 0.938 | > 10000
20 | COCCOC1CCC(C(=O)NO)(S(=O)(=O)c2ccc(-c3ccc(CCCC(F)(F)F)cn3)cc2)CC1 (stereo not drawn) [Example 209] | 1280 | 0.138 | 272
21 | Cc1nc(CCc2ccc(-c3ccc(S(=O)(=O)C4(C(=O)NO)CCOCC4)cc3)cc2)no1 [Example 219] | 1700 | 9.25 | 1760
22 | CCCCc1cnc(-c2ccc(S(=O)(=O)C3(C(=O)NO)CCN(CCOC)CC3)cc2)cn1 [Example 206] | > 10000 | 1.8 | > 10000
23 | CC(C)N(C(=O)N1CCC(C(=O)NO)(S(=O)(=O)c2ccc(-c3ccc(CCC(F)(F)C(F)(F)F)cc3)cc2)CC1)C(C)C [Example 174] | > 10000 | 3.77 | 1180

Row | Structure (SMILES) | Ki (Human recombinant MMP-1) [nM] | Ki (Human recombinant MMP-9) [nM] | Ki (Human recombinant MMP-14) [nM]
24 | COCCOC1CCC(C(=O)NO)(S(=O)(=O)c2ccc(-c3cnc(CCCC(F)(F)F)cn3)cc2)CC1 (stereo not drawn) [Example 210] | > 10000 | 0.75 | 3430
25 | O=C(NC1CCCC1)c1ccc(-c2ccc(S(=O)(=O)C3(C(=O)NO)CCOCC3)cc2)nc1 [Example 198] | 552 | 28.4 | 5120
26 | CC(C)CCOc1ccc(-c2ccc(S(=O)(=O)C3(C(=O)NO)CCOCC3)cc2)cc1C(F)(F)F [Example 86] | > 10000 | 414 | > 10000
27 | O=C(NO)C1(S(=O)(=O)c2ccc(-c3ccc(OC(F)(F)F)cc3)cc2)CCOCC1 [Example 80] | 577 | 0.622 | 89.1
28 | O=C(NO)C1(S(=O)(=O)c2ccc(-c3nc4ccccc4o3)cc2)CCOCC1 [Example 193] | 1490 | 11.5 | 96.7
29 | C#CCN1CCC(C(=O)NO)(S(=O)(=O)c2ccc(-c3ccc(CCC(F)(F)C(F)(F)F)cn3)cc2)CC1 [Example 199] | 4510 | 0.147 | 586
30 | COCCO[C@H]1CC[C@](C(=O)NO)(S(=O)(=O)c2ccc(-c3cnc(CCC(F)(F)C(F)(F)F)cn3)cc2)CC1 [Example 187] | 7020 | 0.16 | 625
31 | O=C(NCC(F)(F)C(F)(F)F)c1cnc(-c2ccc(S(=O)(=O)C3(C(=O)NO)CCOCC3)cc2)cn1 [Example 192] | 1540 | 41.1 | 5920
32 | COCCN1CCC(C(=O)NO)(S(=O)(=O)c2ccc(-c3cnc(OCCC4CCCC4)cn3)cc2)CC1 [Example 200] | > 10000 | 0.648 | 942
33 | CO[C@H]1CC[C@](C(=O)NO)(S(=O)(=O)c2ccc(-c3cnc(CCC(F)(F)C(F)(F)F)cn3)cc2)CC1 [Example 183] | > 10000 | 0.14 | 798
34 | CCN1CCC(C(=O)NO)(S(=O)(=O)c2ccc(-c3cnc(CCCC(F)(F)F)cn3)cc2)CC1 [Example 217] | > 10000 | 5.22 | > 10000
35 | O=C(NO)C1(S(=O)(=O)c2ccc(-c3cnc(OCC4CC4)cn3)cc2)CCOCC1 [Example 168] | 1920 | 0.19 | 46.2
36 | CCCCNc1cnc(-c2ccc(S(=O)(=O)C3(C(=O)NO)CCOCC3)cc2)cn1 [Example 83] | > 10000 | 2.75 | 6360
37 | O=C(NO)C1(S(=O)(=O)c2ccc(-c3ccc4c(c3)OCO4)cc2)CCOCC1 [Example 188] | 81.2 | 4.23 | 27.1
38 | CCCCNC(=O)c1cnc(-c2ccc(S(=O)(=O)C3(C(=O)NO)CCOCC3)cc2)cn1 [Example 184] | 533 | 13.1 | 1290
39 | CCN1CCC(C(=O)NO)(S(=O)(=O)c2ccc(-c3cnc(CCC(F)(F)F)cn3)cc2)CC1 [Example 213] | > 10000 | 4.8 | > 10000
40 | O=C(NO)C1(S(=O)(=O)c2ccc(-c3ccc(CCC(F)(F)F)cn3)cc2)CCOCC1 [Example 176] | 1200 | 0.04 | 111
41 | CCCCOc1ccc(-c2ccc(S(=O)(=O)C3(C(=O)NO)CCOCC3)cc2)cc1 [Example 77] | 1290 | 0.398 | 174
42 | CC(C)CNC(=O)c1cnc(-c2ccc(S(=O)(=O)C3(C(=O)NO)CCOCC3)cc2)cn1 [Example 186] | 1100 | 21.7 | 4610
43 | O=C(Cc1ccc(-c2ccc(S(=O)(=O)C3(C(=O)NO)CCOCC3)cc2)nc1)N1CCCCC1 [Example 212] | > 10000 | 437 | > 10000
44 | O=C(NCC1CCCCC1)c1cnc(-c2ccc(S(=O)(=O)C3(C(=O)NO)CCOCC3)cc2)cn1 [Example 190] | 1310 | 32.3 | 4700
45 | COC/C(Cl)=C/c1cnc(-c2ccc(S(=O)(=O)C3(C(=O)NO)CCOCC3)cc2)cn1 [Example 165] | 8950 | 267 | 1110
46 | O=C(NO)C1(S(=O)(=O)c2ccc(-c3ccc(C(F)(F)F)cn3)cc2)CCOCC1 [Example 82] | 256 | 1.99 | 65.4
